# Source: patent publication US12501899B2, “Mite infestation treatment” (priority 2019, dated 2025)
# Where a name gives a salt, the structure may show the parent alone. Read-outs that look alike come from different tables or passages of the source.
# Columns and labels:
# Varroa destructor = system: Varroa destructor
# Experimental: About 300 bees (Apis mellifera) infected with Varroa destructor were taken from a hive superinfected with Varroa destructor. The bees were then placed in a device allowing to detach Varroa mites attached to the bees (device described in Community model n° 003419415-0001) filled with icing sugar. The device was stirred for 2 minutes to sample the Varroa mites attached to the bees. The icing sugar allows to interfere between the bee and the Varroa mite that was attached thereto. Varroa mites were harvested with icing sugar because they pass through the holes in the device, unlike bees. The Varroa mites were then separated from the icing sugar.
# The Varroa mites thus recovered were dispatched in boxes (10 Varroa mites per box).
# (§1) The bees were then dispatched in the boxes (10 per box).
# (§2) The bees were then put to sleep for a few minutes using CO2 (flow of 3 liters for 20 seconds) in order to deposit 1 μL of compound to be tested on their thorax using a pipette. It should be noted that the bees which received romifidine hydrochloride at a concentration of 10 μg/μL received 2 μL of product. The bees were unconscious for the time the compound to be tested was deposited, that is to say around three minutes, then they woke up.
# (§3) After thoracic deposition of the compound to be tested, the 10 bees from the same box were transferred to a box containing the 10 Varroa mites (cf. “Preparation of Varroa mites” above). Liquid sugar was left in each of the boxes to feed the bees during the observations. The series of boxes was then placed in an oven at […] with a humidity of 50% in order to approximate hive conditions as closely as possible.
# (§4) The mortality of Varroa mites and bees was then monitored 5 minutes, 2 hours, 4 hours and 24 hours after application of the compound to be tested to the bees. Dead Varroa mites correspond to Varroa mites detached from the bees. Dead bees correspond to bees which no longer move and which are often placed on their thorax.
# (§5) The following compositions were applied to the thorax of the bees: • Solvent, • Amitraz at 1 μg/μL in acetone, • Clonidine hydrochloride at 100 μg/μL, 10 μg/μL, 1 μg/μL and 0.1 μg/μL in methanol, • Detomidine hydrochloride monohydrate at 1 μg/μL in methanol, • Dexmedetomidine hydrochloride at 100 μg/μL, 10 μg/μL, 1 μg/μL and 0.1 μg/μL in methanol, • Romifidine hydrochloride at 10 μg/μL and at 5 μg/μL in methanol, • Tizanidine hydrochloride at 1 μg/μL in methanol, • Medetomidine hydrochloride at 0.1 μg/μL in ethanol, • Levomedetomidine hydrochloride at 100 μg/μL, 10 μg/μL, 1 μg/μL and 0.1 μg/μL in methanol, • Octopamine at 1 μg/μL in ethanol. Results
# bees (Apis mellifera) = settings: for bees killed / bee mortality / bees killed: 1 μL on bee thorax; for bees killed / bee mortality: time not stated (monitored up to 24 hours); for mortality / toxicity for the bees: after 24 hours
# Experimental: as §1, §2, §3, §4, §5
smiles,measurement,setting,value
"Clc1cccc(Cl)c1NC1=NCCN1 [Clonidine hydrochloride, N-(2,6-dichlorophenyl)-4,5-dihydro-1H-imidazol-2-amine]",kinetics of the Varroacid effect (in words),Varroa destructor; full efficiency after 24 hours,rather slow compared to the positive control
same,bees killed / bee mortality,bees (Apis mellifera); 1 μg/μL,zero mortality
same,bees killed,bees (Apis mellifera); 10 μg/μL,10%
same,bees killed,bees (Apis mellifera); 100 μg/μL,10%
"Cc1cccc(Cc2cnc[nH]2)c1C [Detomidine hydrochloride monohydrate, 4-[(2,3-dimethylphenyl)-methyl]-3H-imidazole]",Varroa mites killed,"Varroa destructor; 1 μg/μL, after 2 hours",40%
same,Varroa mites killed / Varroa mite mortality,"Varroa destructor; 1 μg/μL, after 24 hours",100%
same,mortality for the bees,"bees (Apis mellifera); 1 μg/μL, after 2 hours",without mortality
same,mortality / toxicity for the bees,bees (Apis mellifera); 1 μg/μL,without mortality
NCC(O)c1ccc(O)cc1 (stereo not drawn) [Octopamine],Varroacid effect (in words),Varroa destructor; 1 μg/μL in ethanol,No Varroacid effect
same,bees killed / bee mortality,bees (Apis mellifera); 1 μg/μL,zero
"Fc1cccc(Br)c1NC1=NCCN1 [Romifidine hydrochloride, N-(2-bromo-6-fluorophenyl)-4,5-dihydro-1H-imidazol-2-amine]",mortality of Varroa mites,"Varroa destructor; 5 μg/μL, 24 hours, compared with 10 μg/μL at 4 hours",same level of mortality
same,mortality of Varroa mites,"Varroa destructor; 2 μl of product at 10 μg/μL, after 2 hours",75%
same,mortality of Varroa mites,"Varroa destructor; 2 μl of product at 10 μg/μL, after 4 hours",95%
same,Bee mortality,"bees (Apis mellifera); all doses (10 and 5 μg/μL), even after 24 hours",zero
"Clc1ccc2nsnc2c1NC1=NCCN1 [Tizanidine hydrochloride, 4-Chloro-N-(4,5-dihydro-1H-imidazol-2-yl)-8-thia-7,9-diazabicyclo, nona-2,4,6,9-tetraen-5-amine]",mortality / toxicity for the bees,bees (Apis mellifera); 1 μg/μL,without toxicity
